From US10851053B2, “Chemical compounds” (GlaxoSmithKline Intellectual Property Development Limited, priority 2016, dated 2020)

What follows are molecules tested on ATF4 translation (ATF4 pathway), SH-SY5Y-ATF4-NanoLuc cells (assay: ATF4 cell based assay (ATF4 5'-UTR NanoLuc luciferase reporter, Thapsigargin induced cellular stress)). Conditions: SH-SY5Y-ATF4-NanoLuc cells challenged with Thapsigargin for 14-18 hours; average of two or more experimental runs; read-out: average ATF4 pathway inhibitory activity (IC50).
Excerpt: The ATF4 reporter assay measures the effect of Thapsigargin induced cellular stress on ATF4 expression. For this reporter assay, a stable cell line was created by transfecting SH-SY5Y cells with a plasmid containing the NanoLuc® luciferase gene fused to the 5′-UTR of ATF4, under the control of the CMV promoter. The ATF4 5′-UTR contains two open reading frames which mediate the cellular stress-dependent translation of the reporter gene. Clones stably expressing the reporter construct were isolated and selected based on the luminescence response to thapsigargin and inhibition of this signal by test compounds. Briefly, SH-SY5Y-ATF4-NanoLuc cells were challenged with Thapsigargin for 14-18 hours to determine the stress effect with or without test compounds.
Cells were propagated in growth media consisting of 90% DMEM F12 (InVitrogen #11320-033), 10% Fetal Bovine Serum (Gibco #10438-026), 5 mM Glutamax (Gibco #35050-061), 5 mM Hepes, (Gibco #15630-080), and 0.5 mg/ml Geneticin (Gibco #10131-027). Cells were prepared for the assay by removing all media from cells, washing the plated cells with phosphate buffered saline, and detached by adding a solution comprised of 10% Tryple express solution (InVitrogen12604-021) and 90% enzyme-free cell dissociation buffer HANKS base (Gibco 13150-016). The trypsin was deactivated by adding assay media comprised of 90% phenol-red free DMEM F12 (InVitrogen, 11039), 10% Fetal Bovine Serum (Gibco #10438-026), (5 mM Glutamax (Gibco #35050-061), 5 mM Hepes, (Gibco #15630-080), and 0.5 mg/ml Geneticin (Gibco #10131-027). Suspended cells were spun down at 300 g for 5 min, the supernatant was removed and the cell pellet was suspended in warm media (30-37° C.) comprised as above at (1e6 cell/ml).
Assay plates were prepared by adding 250 nL of compound stock solution in 100% DMSO to each well, followed by dispensing 20 microliters/well cell suspension to deliver 15-20 k cell/well. Cells were incubated for 1 hour at 37° C. Then, 5 μL of 1.5 μM or 1 μM of Thapsigargin (final concentration: 200-300 nM) was added to each well of cells. Assay plates containing cells were incubated for 14-18 hours at 37° C.
The measurement of luciferase produced by the ATF4 constructs was measured as follows. Aliquots of the Nano-Glo reagent (Nano-Glo® Luciferase Assay Substrate, Promega, N113, Nano-Glo® Luciferase Assay Buffer, Promega, N112 (parts of Nano-Glo® Luciferase Assay System, N1150) were brought to room temperature, the substrate and buffer were mixed according to manufacturer's instructions. The cell plates were equilibrated to room temperature. 25 microliters/well of the mixed Nano-Glo reagent were dispensed into assay wells and pulse spun to settle contents and the plate was sealed with film. The plates were incubated at room temperature for 1 hour before detecting luminescence on an Envision plate reader.
Compounds of the invention are tested for activity against ATF4 translation in the above assay.
O=C(COc1ccc(Cl)cc1)NCC1CCN(C(=O)COc2ccc(Cl)nc2)C1 (racemic) [Example 20, 2-(4-chlorophenoxy)-N-((1-(2-((6-chloropyridin-3-yl)oxy)acetyl)pyrrolidin-3-yl)methyl)acetamide] gave an IC50 of 1 to 10 µM.
For O=C(COc1ccc(Cl)cc1)NCC1CCN(C(=O)COc2ccc(Cl)nc2)C1 (single isomer, unassigned) [Example 11, 2-(4-chlorophenoxy)-N-((1-(2-((6-chloropyridin-3-yl)oxy)acetyl)pyrrolidin-3-yl)methyl)acetamide], the IC50 was 1 to 10 µM.
Work on O=C(COc1ccc(Cl)cc1)NC1C[C@@H]2CN(C(=O)COc3ccc(Cl)cc3)CC12 (stereo in doubt) [Example 32, 2-(4-chlorophenoxy)-N-((1S,5R)-3-(2-(4-chlorophenoxy)acetyl)-3-azabicyclo[3.2.0]heptan-6-yl)acetamide] yielded an IC50 of less than 0.1 µM.
With O=C(COc1ccc(Cl)cc1)NCC1CC(=O)N(CCOc2ccc(Cl)cc2)C1 (centres unmarked) [Example 3, 2-(4-chlorophenoxy)-N-((1-(2-(4-chlorophenoxy)ethyl)-5-oxopyrrolidin-3-yl)methyl)acetamide] the IC50 was less than 0.1 µM.
Work on O=C(COc1ccc(Cl)cc1)NCC1CCN(CC(=O)Nc2ccc(Cl)cc2)C1 (centres unmarked) [Example 4, 2-(4-chlorophenoxy)-N-((1-(2-((4-chlorophenyl)amino)-2-oxoethyl)pyrrolidin-3-yl)methyl)acetamide] yielded an IC50 of less than 0.1 µM.
O=C(COc1ccc(Cl)cc1)N1CC2CN(C(=O)COc3ccc(Cl)cc3)CC2C1 (centres unmarked) [Example 6, 1,1′-(tetrahydropyrrolo[3,4-c]pyrrole-2,5(1H,3H)-diyl)bis(2-(4-chlorophenoxy)ethanone)] showed an IC50 of 1 to 10 µM.
With O=C(COc1ccc(Cl)cc1)NC1CCN(C(=O)COc2ccc(Cl)cc2)C1 (centres unmarked) [Example 7, 2-(4-chlorophenoxy)-N-(1-(2-(4-chlorophenoxy)acetyl)pyrrolidin-3-yl)acetamide] the IC50 was 1 to 10 µM.
In the case of O=C(COc1ccc(Cl)cc1)NCC1CCN(C(=O)C2CCc3cc(Cl)ccc3O2)C1 (centres unmarked) [Example 8, N-((1-(6-chlorochroman-2-carbonyl)pyrrolidin-3-yl)methyl)-2-(4-chlorophenoxy)acetamide], the IC50 is reported as less than 0.1 µM.
Molecule O=C(COc1ccc(Cl)cc1)NCC1CCN(C(=O)C2Cc3cc(Cl)ccc3O2)C1 (centres unmarked) [Example 9, N-((1-(5-chloro-2,3-dihydrobenzofuran-2-carbonyl)pyrrolidin-3-yl)methyl)-2-(4-chlorophenoxy)acetamide] has an IC50 of 0.101 to 1 µM.
With O=C(COc1ccc(Cl)cc1)NCC1CCN(C(=O)COc2cncc(Cl)c2)C1 (centres unmarked) [Example 10, 2-(4-chlorophenoxy)-N-((1-(2-((5-chloropyridin-3-yl)oxy)acetyl)pyrrolidin-3-yl)methyl)acetamide] the IC50 was 1 to 10 µM.
O=C(COc1ccc(Cl)cc1)NCC1CCN(CCOc2ccc(Cl)nc2)C1 (centres unmarked) [Example 13, 2-(4-chlorophenoxy)-N-((1-(2-((6-chloropyridin-3-yl)oxy)ethyl)pyrrolidin-3-yl)methyl)acetamide] showed an IC50 of 1 to 10 µM.
Work on O=C(COc1ccc(Cl)cc1)NCC1CCN(C(=O)CCOc2ccc(Cl)cc2)C1 (centres unmarked) [Example 14, 2-(4-chlorophenoxy)-N-((1-(3-(4-chlorophenoxy)propanoyl)pyrrolidin-3-yl)methyl)acetamide] yielded an IC50 of less than 0.1 µM.
In the case of O=C(COc1ccc(Cl)cc1)NCC1CCN(C(=O)OCCc2ccc(Cl)cc2)C1 (centres unmarked) [Example 15, 4-chlorophenethyl 3-((2-(4-chlorophenoxy)acetamido)methyl)pyrrolidine-1-carboxylate], the IC50 is reported as less than 0.1 µM.
For O=C(COc1ccc(Cl)cc1)NCCC1CCN(C(=O)COc2ccc(Cl)cc2)C1 (centres unmarked) [Example 16, 2-(4-chlorophenoxy)-N-(2-(1-(2-(4-chlorophenoxy)acetyl)pyrrolidin-3-yl)ethyl)acetamide], the IC50 was 0.101 to 1 µM.
For CC1(CNC(=O)COc2ccc(Cl)cc2)CCN(C(=O)COc2ccc(Cl)cc2)C1 (centres unmarked) [Example 17, 2-(4-chlorophenoxy)-N-((1-(2-(4-chlorophenoxy)acetyl)-3-methylpyrrolidin-3-yl)methyl)acetamide], the IC50 was 1 to 10 µM.
Molecule O=C(NCC1CCN(C(=O)COc2ccc(Cl)cc2)C1)C1Cc2cc(Cl)ccc2O1 (centres unmarked) [Example 18, 5-chloro-N-((1-(2-(4-chlorophenoxy)acetyl)pyrrolidin-3-yl)methyl)-2,3-dihydrobenzofuran-2-carboxamide] has an IC50 of 0.101 to 1 µM.
For O=C(COc1ccc(Cl)nc1)NCC1CCN(C(=O)COc2ccc(Cl)cc2)C1 (centres unmarked) [Example 19, N-((1-(2-(4-chlorophenoxy)acetyl)pyrrolidin-3-yl)methyl)-2-((6-chloropyridin-3-yl)oxy)acetamide], the IC50 was 1 to 10 µM.
For O=C(COc1ccc(Cl)cc1)N1CCC(CNCCOc2ccc(Cl)cc2)C1 (centres unmarked) [Example 21, 2-(4-chlorophenoxy)-1-(3-(((2-(4-chlorophenoxy)ethyl)amino)methyl)pyrrolidin-1-yl)ethanone], the IC50 was 0.101 to 1 µM.
In the case of O=C(NCC1CCN(C(=O)COc2ccc(Cl)cc2)C1)C1CCc2cc(Cl)ccc2O1 (centres unmarked) [Example 22, 6-chloro-N-((1-(2-(4-chlorophenoxy)acetyl)pyrrolidin-3-yl)methyl)chroman-2-carboxamide], the IC50 is reported as less than 0.1 µM.
O=C(COc1ccc(Cl)cc1)NC1CCC2(CC1)CCN(C(=O)COc1ccc(Cl)cc1)C2 (centres unmarked) [Example 23, 2-(4-chlorophenoxy)-N-(2-(2-(4-chlorophenoxy)acetyl)-2-azaspiro[4.5]decan-8-yl)acetamide] was tested, and the IC50 was less than 0.1 µM.
In the case of O=C(COc1ccc(Cl)cc1)NCC1CCN(C(=O)N2CCc3cc(Cl)ccc3C2)C1 (centres unmarked) [Example 24, N-((1-(6-chloro-1,2,3,4-tetrahydroisoquinoline-2-carbonyl)pyrrolidin-3-yl)methyl)-2-(4-chlorophenoxy)acetamide], the IC50 is reported as 0.101 to 1 µM.
Molecule O=C(COc1ccc(Cl)cc1)N1CCC2(CCN(C(=O)COc3ccc(Cl)cc3)C2)C1 [Example 26, 1,1′-(2,7-diazaspiro[4.4]nonane-2,7-diyl)bis(2-(4-chlorophenoxy)ethanone)] has an IC50 of 1 to 10 µM.
O=C(COc1ccc(Cl)cc1)N[C@H]1[C@@H]2CN(CCCOc3ccc(Cl)cc3)C[C@@H]21 [Example 28, 2-(4-chlorophenoxy)-N-((1R,5S,6s)-3-(3-(4-chlorophenoxy)propyl)-3-azabicyclo[3.1.0]hexan-6-yl)acetamide] gave an IC50 of less than 0.1 µM.
With O=C(COc1ccc(Cl)cc1)NC[C@H]1CCN(C(=O)COc2ccc(Cl)cc2)C1 [Example 30] the IC50 was 0.252 µM.
For O=C(COc1ccc(Cl)cc1)N[C@H]1[C@@H]2CN(C(=O)COc3ccc(Cl)cc3)C[C@@H]21 [Example 31, 2-(4-chlorophenoxy)-N-((1R,5S,6s)-3-(2-(4-chlorophenoxy)acetyl)-3-azabicyclo[3.1.0]hexan-6-yl)acetamide], the IC50 was 0.101 to 1 µM.
O=C(COc1ccc(Cl)cc1)NOC1CCN(C(=O)COc2ccc(Cl)cc2)C1 (centres unmarked) [Example 33, 2-(4-chlorophenoxy)-N-((1-(2-(4-chlorophenoxy)acetyl)pyrrolidin-3-yl)oxy)acetamide] was tested, and the IC50 was 0.101 to 1 µM.
Work on O=C(COc1ccc(Cl)cc1)NOC1CCN(C(=O)C2CC2c2ccc(Cl)cc2)C1 (centres unmarked) [Example 34, 2-(4-chlorophenoxy)-N-((1-(2-(4-chlorophenyl)cyclopropane-1-carbonyl)pyrrolidin-3-yl)oxy)acetamide] yielded an IC50 of 0.101 to 1 µM.
Work on O=C(COc1ccc(Cl)cc1)NOC1CCN(C(=O)CCOc2ccc(Cl)cc2)C1 (centres unmarked) [Example 35, 2-(4-chlorophenoxy)-N-((1-(3-(4-chlorophenoxy)propanoyl)pyrrolidin-3-yl)oxy)acetamide] yielded an IC50 of less than 0.1 µM.

Same assay, conditions: read-out: average ATF4 pathway inhibitory activity (IC50)
Work on O=C(COc1ccc(Cl)cc1)NCC1CCN(C(=O)COc2ccc(Cl)cc2)C1 (centres unmarked) [Example 1, 2-(4-chlorophenoxy)-N-((1-(2-(4-chlorophenoxy)acetyl)pyrolidin-3-yl)methyl)acetamide] yielded an IC50 of 0.101 to 1 µM.
In the case of O=C(COc1ccc(Cl)cc1)NCC1CCN(CCOc2ccc(Cl)cc2)C1 (centres unmarked) [Example 2, 2-(4-chlorophenoxy)-N-((1-(2-(4-chlorophenoxy)ethyl)pyrrolidin-3-yl)methyl)acetamide], the IC50 is reported as less than 0.1 µM.
Molecule O=C(COc1ccc(Cl)cc1)NC[C@@H]1CCN(C(=O)COc2ccc(Cl)cc2)C1 [Example 29, (S)-2-(4-chlorophenoxy)-N-((1-(2-(4-chlorophenoxy)acetyl)pyrrolidin-3-yl)methyl)acetamide] has an IC50 of 0.101 to 1 µM.
With O=C(COc1ccc(Cl)cc1)NC[C@H]1CCN(C(=O)COc2ccc(Cl)cc2)C1 [Example 30] the IC50 was 0.101 to 1 µM.
